Data reported in US20240301319A1, “PERFUMING COMPOSITIONS” (FIRMNICH SA, priority 2017, published 2024).
Several values for one entry are separate records, joined by “and”; a condition that tells them apart may be missing. Identical values can stand only once. Counter-ions that a name gives are not always drawn.

Legend:
[1] = Log P (n-octanol/water) of perfuming compounds (Tables 4 to 10)
[2] = Volatility of perfuming compounds (Tables 4 to 10), with top/middle/bottom note type; format: physicochemical
Method in brief: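 Note type follows from air volatility (μg/l): bottom 49–0.1, middle 99–50, top 70,000–100. Compounds are listed within watery, green, fruity, citrus, sweet, gourmand and woody families.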

[3] = Odor threshold and odor value of perfuming compounds (Tables 4 to 10)
[4] = Table 6, perfuming compounds having a fruity note
[5] = Table 6, perfuming compounds having a fruity note, note type by volatility
[6] = note type (Top/Middle/Bottom) by volatility, perfuming compounds having a green note
[7] = perfuming compounds having a green note
[8] = Table 4, watery note, top, middle or bottom note
[9] = Table 4, watery note, equals volatility divided by odor threshold
[10] = Table 9, perfuming compounds having a gourmand note, note type by volatility
[11] = Table 10, perfuming compounds having a woody note, note type by volatility
[12] = Table 8, perfuming compounds having a sweet note
[13] = Table 8, perfuming compounds having a sweet note, note type by volatility

CC(O)c1ccccc1 (centres unmarked) [1-PHENYL-1-ETHANOL]
Log P (n-octanol/water) [1, 4]: 1.42 | Volatility [2, 4]: 470.00 μg/l air | Type [2, 5]: TOP (perfuming compounds having a volatility ranging from 70,000 to 100 μg/l in air are referred to as “top notes”)

Cc1ccc2c(c1)OCC(=O)CO2 [7-methyl-2H-1,5-benzodioxepin-3(4H)-one]
Log P (n-octanol/water) ([1]; n-octanol/water, perfuming compounds having a green note): 3.40 and 3.53

C=CC(CCCCC)OC(C)=O (racemic) [(+−)-1-PENTYL-2-PROPENYL ACETATE]
Log P (n-octanol/water) [1, 4]: 3.79 | Volatility [2, 4]: 1506.95 μg/l air | Type [2, 5]: TOP (perfuming compounds having a volatility ranging from 70,000 to 100 μg/l in air are referred to as “top notes”)

O=C(OCc1ccccc1)c1ccccc1 [BENZYL BENZOATE]
Volatility [2, 4]: 0.85 μg/l air | Type [2, 5]: Bottom | Volatility (μg/l air) ([2]; Table 7, citrus note): 0.85 μg/l air | Type ([2]; Table 7, citrus note, top, middle or bottom note): Bottom | Odor Threshold [3, 4]: 3.67E−02 μg/l air | Odor Value [3, 4]: 2.31E+01 | Odor Threshold (μg/l air) ([3]; Table 7, citrus note): 3.67E−02 μg/l air | Odor Value ([3]; Table 7, citrus note, equals volatility divided by odor threshold): 2.31E+01

CC/C=C\CCOC=O [(Z)-3-HEXENYL FORMATE]
Volatility [2, 4]: 9873.53 μg/l air | Type [2, 5]: TOP (perfuming compounds having a volatility ranging from 70,000 to 100 μg/l in air are referred to as “top notes”) | Type [2, 6]: Top | Volatility (μg/l air) [2, 7]: 9873.53 μg/l air | Odor Threshold (μg/l air) [3, 7]: 2.11E−03 μg/l air

CC(C=O)Cc1ccc2c(c1)OCO2 (racemic) [(+−)-3-(1,3-BENZODIOXOL-5-YL)-2-METHYLPROPANAL]
Volatility (μg/l air) ([2]; Table 4, watery note): 3.57 μg/l air | Type [2, 8]: bottom (perfuming compounds having a volatility ranging from 49 to 0.1 μg/l in air are referred to as “bottom notes”) | Odor Threshold (μg/l air) ([3]; Table 4, watery note): 2.23E−04 μg/l air | Odor Value [3, 9]: 1.60E+04

O=Cc1ccc2c(c1)OCO2 [benzo[d][1,3]dioxole-5-carbaldehyde]
Volatility ([2]; Table 9, gourmand note): 61.82 μg/l air | Type [2, 10]: Middle | Odor Threshold ([3]; Table 9, gourmand note): 1.01E−04 μg/l air

CC/C(=C\C[C@H]1CC=C(C)C1(C)C)CO
Type [2, 11]: Bottom | Volatility ([2]; Table 10, woody note): 2.75 μg/l air | Odor Threshold ([3]; Table 10, woody note): 2.41E−05 μg/l air

CC(C)c1cccc(C(C)CC=O)c1 (racemic) [(+−)-3-(3-ISOPROPYL-1-PHENYL)BUTANAL]
Volatility (μg/l air) ([2]; Table 4, watery note): 14.74 μg/l air | Type [2, 8]: bottom (perfuming compounds having a volatility ranging from 49 to 0.1 μg/l in air are referred to as “bottom notes”) | Type [2, 6]: Bottom | Volatility (μg/l air) [2, 7]: 14.74 μg/l air | Odor Threshold (μg/l air) ([3]; Table 4, watery note): 7.71E−04 μg/l air | Odor Value [3, 9]: 1.91E+04 | Odor Threshold (μg/l air) [3, 7]: 7.71E−04 μg/l air

CC1=CCC(/C=C/C(C)C(C)O)C1(C)C (centres unmarked)
Type [2, 11]: Bottom | Volatility ([2]; Table 10, woody note): 20.41 μg/l air | Odor Threshold ([3]; Table 10, woody note): 9.56E−05 μg/l air

CCCCCCCC1CCCC(=O)O1 (racemic) [(+−)-6-heptyltetrahydro-2H-pyran-2-one]
Volatility [2, 4]: 0.90 μg/l air | Type [2, 5]: Bottom | Volatility [2, 12]: 0.90 μg/l air | Type [2, 13]: Bottom | Volatility ([2]; Table 9, gourmand note): 0.90 μg/l air | Type [2, 10]: Bottom | Odor Threshold [3, 4]: 1.27E−04 μg/l air | Odor Value [3, 4]: 7.06E+03 | Odor Threshold [3, 12]: 1.27E−04 μg/l air | Odor Value [3, 12]: 7.06E+03 | Odor Threshold ([3]; Table 9, gourmand note): 1.27E−04 μg/l air

C[C@@H]1CC[C@H]2C(C)(C)[C@H]3C[C@@]12C[C@@H]1OC(C)(C)O[C@@]13C
Type [2, 11]: Bottom | Volatility ([2]; Table 10, woody note): 0.00 μg/l air | Odor Threshold ([3]; Table 10, woody note): 3.90E−06 μg/l air

CC/C=C(\C)C(O)CCCCC (racemic) [(+−)-(E)-4-METHYL-3-DECEN-5-OL]
Volatility [2, 4]: 64.15 μg/l air | Type [2, 5]: Middle | Type [2, 6]: Middle | Volatility (μg/l air) [2, 7]: 64.15 μg/l air | Odor Threshold [3, 4]: 6.78E−04 μg/l air | Odor Value [3, 4]: 9.46E+04 | Odor Threshold (μg/l air) [3, 7]: 6.78E−04 μg/l air

CCCCCCCCCC=O [DECANAL″]
Volatility (μg/l air) ([2]; Table 4, watery note): 466.56 μg/l air | Type [2, 8]: TOP (perfuming compounds having a volatility ranging from 70,000 to 100 μg/l in air are referred to as “top notes”) | Odor Threshold (μg/l air) ([3]; Table 4, watery note): 1.92E−03 μg/l air | Odor Value [3, 9]: 2.43E+05

CCCC(=O)OC(C)(C)Cc1ccccc1 [1,1-DIMETHYL-2-PHENYLETHYL BUTANOATE]
Volatility [2, 4]: 34.65 μg/l air | Type [2, 5]: Bottom | Volatility [2, 12]: 34.65 μg/l air | Type [2, 13]: Bottom | Volatility ([2]; Table 9, gourmand note): 34.65 μg/l air | Type [2, 10]: Bottom | Odor Threshold [3, 4]: 2.68E−02 μg/l air | Odor Value [3, 4]: 1.29E+03 | Odor Threshold [3, 12]: 2.68E−02 μg/l air | Odor Value [3, 12]: 1.29E+03 | Odor Threshold ([3]; Table 9, gourmand note): 2.68E−02 μg/l air

CC(=O)c1ccccc1 [1-phenylethanone]
Volatility [2, 12]: 1728.98 μg/l air | Type [2, 13]: Top | Odor Threshold [3, 12]: 6.61E−03 μg/l air | Odor Value [3, 12]: 2.62E+05
